Data on 82 compounds can be found in the RepoRT retention time repository.

This data set in a line: Agilent ZORBAX 300 SB-C18, 150 × 1 mm, 3.5 µm; A: water + 0.01% heptafluorobutyric acid; B: acetonitrile + 0.01% heptafluorobutyric acid; gradient (min/%B) 0/0 100/90. Conditions: stereoisomer not certain.
As for `CCCN(CCC)CCC`, the LC retention time is 8.17 min.

On to `COc1ccc2c(c1)CCC1C2CCC2(C)C(=O)C(=Cc3ccccc3)CC12` (configuration not stated), for which the LC retention time was found to be 21.4 min.

As to `NCc1ccncc1`, the LC retention time was determined as 6.44 min.

For `CCNC(=O)c1ccc(CN2CCc3ccccc3C2)cc1`, the LC retention time was determined as 8.52 min.

For the compound `O=C1C(=Cc2cccs2)CCCC1=Cc1cccs1`, the LC retention time is 18.5 min.

On to `CNc1ccccn1`, for which the LC retention time was 6.54 min.

As to `CC(C)c1ncc[nH]1`, the LC retention time was determined as 6.64 min.

On to `CN(C)c1ccccn1`, for which the LC retention time came to 6.81 min.

With `CC(NCCc1ccc(O)cc1)C(O)c1ccc(O)cc1` (configuration not stated), the LC retention time is 8.48 min.

Regarding `CCn1c2ccccc2c2cc(CNC)ccc21`, the LC retention time was 10.2 min.

For the compound `COC(=O)Cn1c2c(c3ccccc31)CCCC2`, the LC retention time turned out to be 16.2 min.

For the compound `CC(Nc1ccc2ccccc2c1)C(=O)NN=Cc1c2ccccc2cc2ccccc12` (configuration not stated), the LC retention time turned out to be 17.5 min.

With `Cc1ccncn1`, the LC retention time is 6.89 min.

For `C=CCN1CCC23c4c5ccc(O)c4OC2C(O)C=CC3C1C5` (configuration not stated), the LC retention time stood at 8.18 min.

On to `CC(CCc1ccc(O)cc1)NCCc1ccc(O)c(O)c1` (configuration not stated), for which the LC retention time was determined as 8.94 min.

With `Cc1cccc(Oc2cc(C)nc3ccc(C)cc23)c1`, the LC retention time was 11.8 min.

Consider `CCCC(N)=O`, for which the LC retention time turned out to be 4.71 min.

As to `CC(=O)Nc1ccc(C(=O)NCCc2c[nH]c3ccc(C)cc23)cc1`, the LC retention time was determined as 11.1 min.

For the compound `CCN1CCN(Cc2cc(C)cc(C=O)c2C)CC1`, the LC retention time came out at 9.37 min.

Turning to `CCNc1ccccc1C(=O)O`, the LC retention time stood at 10.8 min.

For `NC(=O)C1(N2CCCCC2)CCN(C(=O)CN2CCNCC2)CC1`, the LC retention time came out at 7.28 min.

Regarding `O=S(=O)(O)CCCN1CCOCC1`, the LC retention time came out at 1.67 min.

On to `Cc1ccccc1N1C(=O)NC(=O)C(=Cc2cccn2C)C1=O`, for which the LC retention time was determined as 10.9 min.

On to `O=C(c1cncc(C(=O)N2CCC(Cc3ccccc3)CC2)c1)N1CCC(Cc2ccccc2)CC1`, for which the LC retention time turned out to be 17.1 min.

For `CCCCCCCCCCCCCCCCN`, the LC retention time is 16.7 min.

For `O=C(O)CNC(=O)c1ccccc1`, the LC retention time was 7.38 min.

For the compound `Cc1cncc(C)n1`, the LC retention time was 7.44 min.

`CCCN1CCCC(C(N)=O)C1` (configuration not stated): the LC retention time amounted to 6.49 min.

As for `Cc1c(-c2ccccc2)cc(-c2ccccc2)nc1-c1ccccc1`, the LC retention time worked out at 19.2 min.

`c1ccc(N=c2scc(-c3ccccc3)n2-c2ccccc2)cc1`: the LC retention time was 12.4 min.

Regarding `CC(=O)C1C(=O)C=C(c2ccco2)CC1c1ccco1` (configuration not stated), the LC retention time turned out to be 13.2 min.

Regarding `CCCCOc1ccccc1N`, the LC retention time came to 10.8 min.

With `CN(C)CCCN1c2ccccc2CCc2ccccc21`, the LC retention time amounted to 11.6 min.

With `Cc1cc2c(s1)Nc1ccccc1N=C2N`, the LC retention time was found to be 9.24 min.

Take `O=Cc1cccc2ncccc12`: the LC retention time was determined as 8.73 min.

Turning to `NC1CCCCCC1`, the LC retention time came out at 7.85 min.

As for `NCCCCCC(=O)O`, the LC retention time is 6.81 min.

With `CC(=O)c1cc2ccccc2oc1=O`, the LC retention time is 10.8 min.

Take `O=C1CCC2(O)C3Cc4ccc(O)c5c4C2(CCN3CC2CC2)C1O5` (configuration not stated): the LC retention time is 8.38 min.

Consider `O=C(Oc1ccccc1)c1cccnc1`, for which the LC retention time came to 11.9 min.

In the case of `CC(N)CCCC(C)(C)O` (configuration not stated), the LC retention time is 7.64 min.

Take `O=C(C=Cc1ccccc1O)c1ccc(O)cc1O`: the LC retention time was 12.2 min.

Turning to `NC1C(O)OC(CO)C(O)C1O` (configuration not stated), the LC retention time was determined as 2.77 min.

Turning to `Cc1ccc(NC(=S)NN=C2CCN(C(C)C)CC2)cc1`, the LC retention time was 9.64 min.

In the case of `CC(O)CCN` (configuration not stated), the LC retention time was determined as 3.82 min.

With `CCn1cc(CCC(=O)O)c2ccccc21`, the LC retention time was 12.4 min.

On to `CN1CCNCC1`, for which the LC retention time turned out to be 6.48 min.

As to `O=C(CC1NC(=O)N(C2CCCCC2)C1=O)NCCc1c[nH]c2ccccc12` (configuration not stated), the LC retention time amounted to 12.1 min.

Take `Cc1cc2n[nH]nc2cc1C`: the LC retention time is 9.69 min.

Take `CCN(Cc1ccncc1)C(=S)Nc1ccccc1`: the LC retention time worked out at 8.91 min.

As to `O=c1cc(O)c2ccccc2[nH]1`, the LC retention time came to 8.44 min.

Regarding `Cc1cc2n(n1)c1cc(C)nn1c1cc(C)nn21`, the LC retention time turned out to be 11.1 min.

In the case of `CCOC(=O)CN`, the LC retention time was 6.34 min.

Take `O=C1CCCN1c1ccccc1`: the LC retention time was 10 min.

Turning to `Cc1ccc(-n2cnnn2)nc1`, the LC retention time came out at 9.44 min.

Turning to `CCn1ccc(C(C)C)c1-c1ccccc1`, the LC retention time was determined as 19 min.

For the compound `CCCCOc1cc(C(=O)NCCN(CC)CC)c2ccccc2n1`, the LC retention time was 11.8 min.

As to `CCCCN1CCCCC1C(=O)Nc1c(C)cccc1C` (configuration not stated), the LC retention time is 10.5 min.

Turning to `NC(=O)N1CCC(CCCC2CCN(C(N)=O)CC2)CC1`, the LC retention time worked out at 9.11 min.

Consider `c1ccc(-c2nc(-c3cccnc3)[nH]c2-c2ccccc2)cc1`, for which the LC retention time came out at 11 min.

On to `COc1cc2ccccc2cc1CNc1ccccc1`, for which the LC retention time was determined as 15.7 min.

Consider `CCc1ccncc1`, for which the LC retention time is 6.94 min.

For `C1CCNCC1`, the LC retention time was 6.6 min.

In the case of `CCc1ccc(C(c2c[nH]c3ccccc23)c2c[nH]c3ccccc23)cc1`, the LC retention time came to 18.2 min.

On to `O=C(O)c1cc(-c2ccccc2)nc2ccccc12`, for which the LC retention time came to 11.6 min.

In the case of `Cn1cc(C(=O)O)c2ccccc21`, the LC retention time was found to be 9.81 min.

With `O=C(Nc1ccc(Cc2ccncc2)cc1)c1ccc2ccccc2n1`, the LC retention time was 11.4 min.

As to `C#CC(C)(C)N`, the LC retention time was 6.38 min.

For `CC(C)NCCN(CCNC(C)C)CCNC(C)C`, the LC retention time is 7.84 min.

Turning to `NNC(=S)Nc1ccccc1`, the LC retention time worked out at 8.31 min.

On to `CCCCCCn1c2ccccc2c2cc(C(C)=O)ccc21`, for which the LC retention time was determined as 20 min.

For `CCC(C)C(NC(C)=O)C(=O)O` (configuration not stated), the LC retention time is 7.75 min.

As for `COc1ccc(OC)c(C(=O)C=Cc2ccc(OC)c(OC)c2OC)c1`, the LC retention time was 15.2 min.

In the case of `O=C(O)c1c(-c2ccccc2)c(-c2ccccc2)n[nH]c1=O`, the LC retention time came to 9.72 min.

As for `CN(C)CCCNCc1ccc2[nH]c3c(c2c1)CCCC3`, the LC retention time stood at 8.71 min.

With `COc1cc(C(=O)Nc2ccc(N3CCCC3=O)cc2)cc(OC)c1OC`, the LC retention time amounted to 10.8 min.

Regarding `CCCNCc1ccc2c(c1)n(C)c(=O)n2C`, the LC retention time was found to be 7.81 min.

As for `Cc1cccc(-c2nc(=S)[nH][nH]2)c1`, the LC retention time is 9.33 min.

Regarding `Cc1cc[n+](CCC(=O)O)c2ccccc12`, the LC retention time came out at 7.41 min.

Consider `CC(=O)Nc1ccc(C2=NNC(c3ccccc3)C2)cc1` (configuration not stated), for which the LC retention time stood at 10.3 min.

`CC(=O)Oc1c[nH]c2ccccc12`: the LC retention time was determined as 11.6 min.

Consider `CN1CCN(C)CC1`, for which the LC retention time is 6.13 min.
